Data taken from ChEMBL document CHEMBL1201862, “PubChem BioAssay data set” (2004).
Active and inactive are the calls of the source.

What was measured:
[1] = SNU-C1 cell viability reduction, dose response, CellTiter-Glo luminescence (AID 1117323); type: functional, cell-based
[2] = half-maximal inhibitory concentration for glucagon-like peptide-1 release, STC-1 cell line, dose-response (AID 1117345); type: functional, cell-based
Streptokinase A = biological target: T1, Streptokinase A (Streptococcus pyogenes serotype M1, UniProt P10520); experiment: S. pyogenes streptokinase expression inhibitors, potency, dose response, plasminogen activation absorbance, OD405 (AID 1914); type: functional, Streptococcus pyogenes M1 GAS;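 also: secreted streptokinase activity via plasminogen activation per viability signal from cell pellet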
T1 sequence (P10520 whole entry): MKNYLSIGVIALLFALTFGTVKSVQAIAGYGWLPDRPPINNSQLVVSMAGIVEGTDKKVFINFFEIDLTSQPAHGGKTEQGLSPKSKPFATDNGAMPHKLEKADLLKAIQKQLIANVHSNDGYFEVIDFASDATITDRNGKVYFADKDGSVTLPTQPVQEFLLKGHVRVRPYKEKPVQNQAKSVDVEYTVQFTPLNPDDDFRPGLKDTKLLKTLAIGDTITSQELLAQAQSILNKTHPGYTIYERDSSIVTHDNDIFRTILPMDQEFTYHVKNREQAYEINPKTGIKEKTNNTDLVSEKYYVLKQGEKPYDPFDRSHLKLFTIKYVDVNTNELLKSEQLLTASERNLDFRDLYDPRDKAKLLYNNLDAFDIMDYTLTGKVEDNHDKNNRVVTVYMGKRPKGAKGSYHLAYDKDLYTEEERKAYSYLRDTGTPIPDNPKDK

[3] = CellTiter-Glo luminescent dose response of DLD-1 viability loss (AID 1117352); type: functional
Oxytocin receptor = Oxytocin receptor (Homo sapiens, UniProt P30559); experiment: Fluorescence-based cell-based high throughput dose response assay for agonists of the Oxytocin Receptor (OXTR). [Related pubchem assays: 2435 (Primary screen (OXTR agonists in singlicate)), 434991 (Counterscreen (V1R agonists in triplicate)), 2482 (Summary (OXTR agonists)), 434963 (Confirmation screen (OXTR agonists in triplicate))]; type: functional
[4] = cytotoxicity toward HT-29 cells – cell-based, CellTiter-Glo luminescence, IC50, dose response (AID 1117330); type: functional
[5] = Glucagon-like peptide 1 release potency, NCI-H716 cell line, dose-response, half-maximal inhibitory concentration (AID 1117344); type: functional, cell-based
[6] = tested on: Streptococcus sp. 'group A'; experiment: growth inhibition of control SK(-) GAS strain, dose response, counter-screen for streptokinase expression inhibitor project, luminescence, kanamycin, BacTiterGlo, confirmation (AID 1900); type: functional, organism-based
[7] = microbe, parasite or virus in culture; type: functional; settings: Mycobacterium tuberculosis
[8] = HCT116 cell viability decrease, GSK3B pretreatment – CellTiter-Glo, IC50, dose response (AID 1117339); type: functional; settings: HCT-116
Streptococcus = experiment: Group A Streptococcus viability loss, dose response, counter-screen for streptokinase expression inhibitor project, luminescence, BacTiterGlo (AID 1915); type: functional, organism-based;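 also: potency for reduction of bacterial viability or growth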
Vasopressin V1a receptor = Vasopressin V1a receptor (Homo sapiens, UniProt P37288); experiment: Counterscreen for Oxytocin Receptor (OXTR) agonists: Fluorescence-based cell-based high throughput dose response assay to identify agonists of the vasopressin 1 receptor (V1R). [Related pubchem assays: 2435 (Primary screen (OXTR agonists in singlicate)), 434991 (Counterscreen (V1R agonists in triplicate)), 2482 (Summary (OXTR agonists)) …; type: functional
INS1 = experiment: beta cell apoptosis inhibitors, cytokine rescue, dose response, luminescence, retest (AID 449756); type: functional, cell-based; settings: Rattus norvegicus;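 also: cell death triggered by IL-1 beta plus TNF-alpha plus IFN-gamma mixture; protective hits raise ATP signal compared with cytokine alone wells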
[9] = cytotoxicity toward HCT116 cells – cell-based, CellTiter-Glo luminescence, IC50, dose response (AID 1117332); type: functional; settings: HCT-116
[10] = biological target: Heat shock protein HSP 90-alpha (Homo sapiens, UniProt P07900); type: functional, organism-based
[11] = biological target: T2, Replicative DNA helicase DnaB (Mycobacterium tuberculosis, UniProt P9WMR3); experiment: DnaB intein splicing inhibitors, dose response, biochemical, cell-free fluorescence (AID 449749); type: functional
T2 sequence (P9WMR3 whole entry): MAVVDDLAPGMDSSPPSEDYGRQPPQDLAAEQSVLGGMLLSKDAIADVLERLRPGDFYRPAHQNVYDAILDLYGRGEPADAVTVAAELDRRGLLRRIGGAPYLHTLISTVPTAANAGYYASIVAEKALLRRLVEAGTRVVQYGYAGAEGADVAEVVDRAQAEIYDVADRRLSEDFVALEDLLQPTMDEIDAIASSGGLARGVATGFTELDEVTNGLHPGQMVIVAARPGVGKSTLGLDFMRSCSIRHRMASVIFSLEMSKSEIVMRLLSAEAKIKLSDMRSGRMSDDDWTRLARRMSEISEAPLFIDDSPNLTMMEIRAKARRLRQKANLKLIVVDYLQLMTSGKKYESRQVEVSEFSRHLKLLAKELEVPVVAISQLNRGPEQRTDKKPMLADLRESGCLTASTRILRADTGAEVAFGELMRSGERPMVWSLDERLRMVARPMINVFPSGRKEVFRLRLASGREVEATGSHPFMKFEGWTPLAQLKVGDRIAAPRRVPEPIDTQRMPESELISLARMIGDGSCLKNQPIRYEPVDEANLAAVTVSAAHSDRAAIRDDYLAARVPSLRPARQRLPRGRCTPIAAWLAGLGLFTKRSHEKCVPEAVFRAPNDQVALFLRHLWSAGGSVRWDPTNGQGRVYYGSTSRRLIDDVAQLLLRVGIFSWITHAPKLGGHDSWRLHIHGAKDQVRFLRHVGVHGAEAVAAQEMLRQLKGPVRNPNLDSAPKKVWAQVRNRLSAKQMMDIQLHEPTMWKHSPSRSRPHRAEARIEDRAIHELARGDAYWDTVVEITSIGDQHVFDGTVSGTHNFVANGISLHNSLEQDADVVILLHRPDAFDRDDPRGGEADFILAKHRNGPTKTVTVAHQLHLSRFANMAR

Vero = Vero cell cytotoxicity, cytotoxicity control for flavivirus capping enzyme inhibitors (AID 588742); type: functional; settings: Chlorocebus sabaeus
[12] = biological target: T3, DNA repair protein RAD52 homolog (Homo sapiens, UniProt P43351); type: functional, biochemical
T3 sequence (P43351 whole entry): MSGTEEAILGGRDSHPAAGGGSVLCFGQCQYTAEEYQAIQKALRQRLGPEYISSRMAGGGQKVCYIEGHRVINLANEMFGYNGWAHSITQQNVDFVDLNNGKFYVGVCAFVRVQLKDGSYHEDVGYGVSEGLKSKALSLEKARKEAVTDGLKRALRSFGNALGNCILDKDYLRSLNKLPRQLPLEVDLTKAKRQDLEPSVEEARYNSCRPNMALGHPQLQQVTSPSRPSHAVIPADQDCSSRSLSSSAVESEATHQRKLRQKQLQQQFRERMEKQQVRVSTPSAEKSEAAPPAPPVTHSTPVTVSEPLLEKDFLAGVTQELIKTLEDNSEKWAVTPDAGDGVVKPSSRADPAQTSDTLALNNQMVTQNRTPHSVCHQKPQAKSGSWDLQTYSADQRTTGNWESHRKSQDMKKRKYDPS

[13] = cytotoxicity toward Colo320 cells – cell-based, CellTiter-Glo luminescence, IC50, dose response (AID 1117334); type: functional; settings: COLO 320
[14] = RKO cell viability reduction, dose response, CellTiter-Glo luminescence (AID 1117322); type: functional
[15] = Concentration-dependent survival of SW480 colon cancer line, luminescence detection with CellTiter-Glo, half-maximal inhibitory concentration (AID 1117338); type: functional
Protein RecA = biological target: T4, Protein RecA (Mycobacterium tuberculosis, UniProt P9WHJ3); experiment: Fluorescence Cell-Free Homogeneous Dose Retest to Identify Inhibitors of RecA-Intein Splicing Activity. [Related pubchem assays (depositor defined):AID2097, AID2223, AID489010, AID492950]; type: functional
T4 sequence (P9WHJ3 whole entry): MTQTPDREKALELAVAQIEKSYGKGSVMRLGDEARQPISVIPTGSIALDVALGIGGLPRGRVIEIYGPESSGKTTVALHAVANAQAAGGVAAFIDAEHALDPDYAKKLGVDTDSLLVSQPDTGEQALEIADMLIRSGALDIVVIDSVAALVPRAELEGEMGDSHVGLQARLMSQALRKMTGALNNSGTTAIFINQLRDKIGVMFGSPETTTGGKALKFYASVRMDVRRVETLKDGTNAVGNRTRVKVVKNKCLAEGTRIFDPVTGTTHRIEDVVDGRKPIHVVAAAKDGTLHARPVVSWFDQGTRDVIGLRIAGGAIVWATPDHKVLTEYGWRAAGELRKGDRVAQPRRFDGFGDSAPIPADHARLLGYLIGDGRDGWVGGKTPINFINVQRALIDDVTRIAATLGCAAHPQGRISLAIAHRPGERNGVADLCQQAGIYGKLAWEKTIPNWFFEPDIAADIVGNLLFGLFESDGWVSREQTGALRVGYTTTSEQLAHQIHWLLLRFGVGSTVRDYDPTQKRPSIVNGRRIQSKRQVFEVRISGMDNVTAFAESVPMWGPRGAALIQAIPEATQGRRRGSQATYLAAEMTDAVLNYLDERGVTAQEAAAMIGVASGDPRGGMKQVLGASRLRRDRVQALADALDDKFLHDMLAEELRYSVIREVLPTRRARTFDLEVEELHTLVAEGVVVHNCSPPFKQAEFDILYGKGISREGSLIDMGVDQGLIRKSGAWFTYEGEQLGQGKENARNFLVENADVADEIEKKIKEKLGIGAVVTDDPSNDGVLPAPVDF

[16] = biological target: T5, Voltage-gated N-type calcium channel alpha-1B subunit/Amyloid beta A4 precursor protein-binding family A member 1 (Homo sapiens, UniProt Q00975+Q02410); type: protein assay
Genome polyprotein = Genome polyprotein (Hepatitis C virus, UniProt Q2Q167); experiment: HCV core protein dimerization inhibitors, dose response, biochemical, TR-FRET (AID 2159); set-up: species or system Hepacivirus hominis;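 also: blocks dimerization of HCV core protein measured by TR-FRET between tagged core106 pairs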
[17] = biological target: T5, Voltage-gated N-type calcium channel alpha-1B subunit/Amyloid beta A4 precursor protein-binding family A member 1; type: protein assay; remark: listed apart in the source
[18] = biological target: Photoreceptor-specific nuclear receptor (Homo sapiens, UniProt Q9Y5X4); type: functional;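 also: potency for compounds that break the NR2E3 corepressor complex and count as activators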
[19] = biological target: Protein-tyrosine kinase 2-beta (Homo sapiens, UniProt Q14289);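 also: potency of inhibitors of PYK2 kinase phosphorylation of poly-GT substrate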
[20] = biological target: Peroxisome proliferator-activated receptor gamma/Nuclear receptor corepressor 2 (Homo sapiens, UniProt P37231+Q9Y618); type: functional

T5 sequence (Q00975 whole entry): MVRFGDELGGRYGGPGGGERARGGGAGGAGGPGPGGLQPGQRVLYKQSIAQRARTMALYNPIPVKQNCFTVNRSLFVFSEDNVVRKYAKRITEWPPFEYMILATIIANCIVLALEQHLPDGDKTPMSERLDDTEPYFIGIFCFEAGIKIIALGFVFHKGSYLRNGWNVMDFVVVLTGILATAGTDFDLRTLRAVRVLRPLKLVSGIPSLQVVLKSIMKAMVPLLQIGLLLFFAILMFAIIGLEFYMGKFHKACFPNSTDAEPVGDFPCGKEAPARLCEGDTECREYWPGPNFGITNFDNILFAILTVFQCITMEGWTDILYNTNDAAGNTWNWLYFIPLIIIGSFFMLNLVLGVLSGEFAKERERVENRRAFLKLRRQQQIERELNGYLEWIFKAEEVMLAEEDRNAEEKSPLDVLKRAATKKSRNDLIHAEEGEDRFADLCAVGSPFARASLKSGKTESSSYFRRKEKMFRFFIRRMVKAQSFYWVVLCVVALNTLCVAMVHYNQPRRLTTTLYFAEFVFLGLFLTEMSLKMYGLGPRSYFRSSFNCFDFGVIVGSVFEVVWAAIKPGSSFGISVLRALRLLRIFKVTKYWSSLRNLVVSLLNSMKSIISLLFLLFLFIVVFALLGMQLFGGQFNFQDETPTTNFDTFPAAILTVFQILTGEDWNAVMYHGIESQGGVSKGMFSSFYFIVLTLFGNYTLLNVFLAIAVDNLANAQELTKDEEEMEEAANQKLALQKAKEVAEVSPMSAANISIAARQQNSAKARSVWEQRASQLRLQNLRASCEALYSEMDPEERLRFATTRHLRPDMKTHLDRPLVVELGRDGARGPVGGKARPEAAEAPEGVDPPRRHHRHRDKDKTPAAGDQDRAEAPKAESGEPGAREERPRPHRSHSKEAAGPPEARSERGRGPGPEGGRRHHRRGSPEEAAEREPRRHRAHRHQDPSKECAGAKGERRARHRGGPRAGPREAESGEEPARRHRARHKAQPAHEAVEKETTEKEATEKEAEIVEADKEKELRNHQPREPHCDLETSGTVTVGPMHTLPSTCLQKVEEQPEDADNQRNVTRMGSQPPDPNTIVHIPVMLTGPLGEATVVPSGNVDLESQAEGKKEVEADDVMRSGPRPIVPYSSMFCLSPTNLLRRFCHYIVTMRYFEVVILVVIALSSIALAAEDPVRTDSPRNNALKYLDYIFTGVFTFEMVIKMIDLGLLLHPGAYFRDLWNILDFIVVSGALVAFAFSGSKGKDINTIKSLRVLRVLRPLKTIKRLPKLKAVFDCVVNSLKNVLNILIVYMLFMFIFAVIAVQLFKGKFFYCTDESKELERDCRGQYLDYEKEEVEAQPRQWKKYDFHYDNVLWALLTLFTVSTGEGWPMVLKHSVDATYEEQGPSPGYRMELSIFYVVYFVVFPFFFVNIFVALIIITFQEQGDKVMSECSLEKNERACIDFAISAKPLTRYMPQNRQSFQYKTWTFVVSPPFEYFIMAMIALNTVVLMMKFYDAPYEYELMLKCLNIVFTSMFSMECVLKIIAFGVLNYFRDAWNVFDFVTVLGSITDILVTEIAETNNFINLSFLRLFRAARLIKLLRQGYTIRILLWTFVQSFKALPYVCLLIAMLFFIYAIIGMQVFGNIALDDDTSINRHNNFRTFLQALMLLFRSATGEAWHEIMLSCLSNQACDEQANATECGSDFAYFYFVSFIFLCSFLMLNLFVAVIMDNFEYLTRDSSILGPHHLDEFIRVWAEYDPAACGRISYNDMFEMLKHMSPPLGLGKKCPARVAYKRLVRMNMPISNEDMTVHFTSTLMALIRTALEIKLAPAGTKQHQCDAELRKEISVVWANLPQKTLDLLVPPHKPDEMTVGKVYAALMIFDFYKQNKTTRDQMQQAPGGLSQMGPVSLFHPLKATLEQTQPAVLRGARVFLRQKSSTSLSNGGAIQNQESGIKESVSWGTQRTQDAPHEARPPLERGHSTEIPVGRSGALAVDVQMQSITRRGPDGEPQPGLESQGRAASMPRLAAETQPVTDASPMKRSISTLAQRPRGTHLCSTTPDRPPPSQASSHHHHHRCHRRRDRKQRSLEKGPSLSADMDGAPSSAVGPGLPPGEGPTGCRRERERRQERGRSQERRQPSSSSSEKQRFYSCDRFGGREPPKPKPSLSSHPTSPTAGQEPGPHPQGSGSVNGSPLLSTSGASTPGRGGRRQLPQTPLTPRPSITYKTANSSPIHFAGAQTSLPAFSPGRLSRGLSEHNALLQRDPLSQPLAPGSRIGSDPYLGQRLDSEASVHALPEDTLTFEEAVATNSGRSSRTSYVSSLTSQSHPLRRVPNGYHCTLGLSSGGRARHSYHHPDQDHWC
T5 sequence (Q02410 whole entry): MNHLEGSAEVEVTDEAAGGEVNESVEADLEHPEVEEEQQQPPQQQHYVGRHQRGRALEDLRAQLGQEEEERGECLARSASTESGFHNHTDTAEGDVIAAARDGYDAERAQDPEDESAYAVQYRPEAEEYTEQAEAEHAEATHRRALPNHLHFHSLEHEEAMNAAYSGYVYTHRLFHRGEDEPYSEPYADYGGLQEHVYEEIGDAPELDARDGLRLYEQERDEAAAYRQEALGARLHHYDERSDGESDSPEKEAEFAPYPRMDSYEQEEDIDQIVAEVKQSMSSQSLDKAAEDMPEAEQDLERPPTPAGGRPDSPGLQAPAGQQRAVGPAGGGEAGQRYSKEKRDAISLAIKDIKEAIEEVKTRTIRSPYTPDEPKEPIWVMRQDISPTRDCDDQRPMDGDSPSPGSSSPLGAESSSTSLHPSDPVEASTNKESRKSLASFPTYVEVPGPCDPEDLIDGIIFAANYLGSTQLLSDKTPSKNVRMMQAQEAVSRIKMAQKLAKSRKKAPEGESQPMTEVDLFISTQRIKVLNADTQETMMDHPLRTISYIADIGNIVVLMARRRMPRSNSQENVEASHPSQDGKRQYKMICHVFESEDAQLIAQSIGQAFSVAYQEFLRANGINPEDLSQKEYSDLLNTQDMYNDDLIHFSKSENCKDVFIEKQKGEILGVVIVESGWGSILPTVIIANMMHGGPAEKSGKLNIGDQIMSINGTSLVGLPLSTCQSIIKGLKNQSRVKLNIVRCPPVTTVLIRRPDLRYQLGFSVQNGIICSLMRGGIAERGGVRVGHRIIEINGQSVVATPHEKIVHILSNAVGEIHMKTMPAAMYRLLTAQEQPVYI
Sequence of Protein-tyrosine kinase 2-beta (Q14289 whole entry): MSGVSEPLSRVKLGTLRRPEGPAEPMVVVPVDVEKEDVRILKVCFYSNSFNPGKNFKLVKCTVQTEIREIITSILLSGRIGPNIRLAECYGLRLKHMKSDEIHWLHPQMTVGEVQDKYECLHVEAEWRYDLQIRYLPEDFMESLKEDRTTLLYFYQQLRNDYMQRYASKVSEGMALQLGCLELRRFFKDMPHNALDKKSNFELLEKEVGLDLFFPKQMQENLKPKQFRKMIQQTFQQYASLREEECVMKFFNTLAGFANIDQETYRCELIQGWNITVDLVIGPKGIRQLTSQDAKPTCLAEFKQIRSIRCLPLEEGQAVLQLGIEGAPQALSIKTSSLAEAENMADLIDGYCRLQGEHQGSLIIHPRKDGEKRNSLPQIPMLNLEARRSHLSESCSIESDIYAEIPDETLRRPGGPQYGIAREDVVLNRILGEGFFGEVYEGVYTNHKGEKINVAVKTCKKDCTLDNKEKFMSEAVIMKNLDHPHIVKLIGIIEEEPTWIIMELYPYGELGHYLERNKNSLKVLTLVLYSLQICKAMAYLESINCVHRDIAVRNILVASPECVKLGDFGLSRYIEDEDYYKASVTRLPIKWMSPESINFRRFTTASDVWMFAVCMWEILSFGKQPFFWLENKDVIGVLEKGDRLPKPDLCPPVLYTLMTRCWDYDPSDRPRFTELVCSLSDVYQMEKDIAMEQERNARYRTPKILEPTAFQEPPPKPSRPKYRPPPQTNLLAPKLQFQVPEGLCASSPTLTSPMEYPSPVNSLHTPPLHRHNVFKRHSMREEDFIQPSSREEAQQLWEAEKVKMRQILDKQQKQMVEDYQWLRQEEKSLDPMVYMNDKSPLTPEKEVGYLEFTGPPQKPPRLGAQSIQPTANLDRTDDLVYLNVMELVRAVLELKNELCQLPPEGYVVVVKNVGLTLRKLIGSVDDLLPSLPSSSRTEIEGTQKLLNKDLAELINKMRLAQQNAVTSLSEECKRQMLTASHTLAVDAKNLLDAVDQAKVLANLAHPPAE
Sequence of Vasopressin V1a receptor (P37288 whole entry): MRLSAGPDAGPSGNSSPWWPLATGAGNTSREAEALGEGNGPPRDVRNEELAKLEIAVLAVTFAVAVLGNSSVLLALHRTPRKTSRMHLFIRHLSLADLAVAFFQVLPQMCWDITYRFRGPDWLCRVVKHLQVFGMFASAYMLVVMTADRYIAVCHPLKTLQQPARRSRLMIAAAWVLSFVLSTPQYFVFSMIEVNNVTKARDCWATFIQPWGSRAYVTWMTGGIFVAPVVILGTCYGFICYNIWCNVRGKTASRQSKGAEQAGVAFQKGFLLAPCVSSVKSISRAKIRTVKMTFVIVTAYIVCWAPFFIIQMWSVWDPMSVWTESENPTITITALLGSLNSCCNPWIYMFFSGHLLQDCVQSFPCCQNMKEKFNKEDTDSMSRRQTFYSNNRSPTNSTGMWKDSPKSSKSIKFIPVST
Sequence of Photoreceptor-specific nuclear receptor (Q9Y5X4 whole entry): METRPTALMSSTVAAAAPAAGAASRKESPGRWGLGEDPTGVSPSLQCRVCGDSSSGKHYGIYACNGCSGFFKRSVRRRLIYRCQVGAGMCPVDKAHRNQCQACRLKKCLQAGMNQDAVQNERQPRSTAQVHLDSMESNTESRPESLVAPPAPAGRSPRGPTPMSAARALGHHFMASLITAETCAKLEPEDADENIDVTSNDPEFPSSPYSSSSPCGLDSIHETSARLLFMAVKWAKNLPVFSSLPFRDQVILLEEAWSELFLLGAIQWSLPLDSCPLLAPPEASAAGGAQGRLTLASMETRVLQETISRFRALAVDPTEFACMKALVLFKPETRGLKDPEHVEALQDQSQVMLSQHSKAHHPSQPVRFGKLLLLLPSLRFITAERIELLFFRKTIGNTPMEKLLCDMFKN

CCCCCCCCCCCCCCCC[N+](C)(C)CC
inconclusive: EC50 (Streptokinase A) 23.2 µM
inactive: IC50 [2] > 40 µM | IC50 [5] 11.7 µM
> 29.9 µM (not active): EC50 (Oxytocin receptor)
active: IC50 [1] 0.004 µM | IC50 [3] 0.74 µM | IC50 [4] 0.409 µM | EC50 [6] 1.3 µM | CC50 [7] 34.8 µM | IC50 [8] 2.68 µM | EC50 (Streptococcus) 8.57 µM | EC50 (Vasopressin V1a receptor) > 3.32 µM | AC50 (INS1) 2.97 µM | IC50 [9] 3.16 µM | AC50 [10] 1.16 µM | AC50 [11] 4.56 µM | CC50 (Vero) 32.7 µM | AC50 [12] 8.98 µM | IC50 [13] 0.0372 µM | IC50 [14] 0.931 µM | IC50 [15] 1.24 µM | EC50 (Protein RecA) 13.2 µM

Cc1c(N2C(=O)c3ccc4c5c(ccc(c35)C2=O)CC4)c(=O)n(-c2ccccc2)n1C
> 39.8 µM (not active): IC50 [18] | IC50 [20]
> 49.8 µM (not active): IC50 (Genome polyprotein)
active: IC50 [16] 5.83 µM | IC50 [17] 15.7 µM | IC50 [19] 2.27 µM
